Test results reported in paper PMC7614683, “A small molecule PI3Kα activator for cardioprotection and neuroregeneration” (Nature, 2023).
Read-outs that look alike come from different tables or passages of the source.

Key:
PI3Kα-KO A549 cells = test: TIRF microscopy of PIP3 reporter, PI3Kα-KO A549; type: cell-based, human
Excerpt: Generation of pooled PIK3CA-null A549 cells was outsourced to Synthego Corporation. Briefly, the PIK3CA gene was targeted with synthetic ribonucleoprotein (RNP) complexes including the following single guide RNA (sgRNA) sequence: 5’-[…]-3’. This sequence is located within PIK3CA exon 3 and covers the coding sequence preceding the p110α RAS binding domain, with the Cas9 cut site corresponding to amino acids 156/157 of p110α). In parallel, control cultures were exposed to the Cas9 protein without sgRNA, henceforth referred to as “WT cultures”. Single-cell clones were established from both WT and targeted cultures by limiting dilution, thereby ensuring seeding of maximum 1 cell per well of a 96-well plate. To promote recovery, subcloned cells in 96-wells were cultured in a 1:1 mixture of standard A549 complete medium and conditioned medium. Conditioned medium was prepared from WT cultures 2 days post-passaging by centrifuging the medium at 1000g for 10 min, followed by 0.22 μm PES filtration and storage at 4°C (-80°C for storage exceeding 2 weeks). The medium was replenished every 2-3 days, as gently as possible to prevent cells from dislodging. Once cells reached sub-confluence, they were expanded to 24-well plates and 25 cm[2] flasks, followed by genotyping and cell banking. […]

human p110α/p85α (PI3Kα) = target: T1, human p110α/p85α (PI3Kα) (Homo sapiens, UniProt P42336); test: ADP-Glo in vitro lipid kinase assay, PI3Kα; type: biochemical
T1 construct: Full-length human p110α was expressed either in a complex with full-length human p85α (for HTS, biochemistry and HDX-MS); 6xHis tag followed by TEV protease site (N); host or cells: Spodoptera frugiperda Sf9, baculovirus
T1 sequence (P42336 whole entry): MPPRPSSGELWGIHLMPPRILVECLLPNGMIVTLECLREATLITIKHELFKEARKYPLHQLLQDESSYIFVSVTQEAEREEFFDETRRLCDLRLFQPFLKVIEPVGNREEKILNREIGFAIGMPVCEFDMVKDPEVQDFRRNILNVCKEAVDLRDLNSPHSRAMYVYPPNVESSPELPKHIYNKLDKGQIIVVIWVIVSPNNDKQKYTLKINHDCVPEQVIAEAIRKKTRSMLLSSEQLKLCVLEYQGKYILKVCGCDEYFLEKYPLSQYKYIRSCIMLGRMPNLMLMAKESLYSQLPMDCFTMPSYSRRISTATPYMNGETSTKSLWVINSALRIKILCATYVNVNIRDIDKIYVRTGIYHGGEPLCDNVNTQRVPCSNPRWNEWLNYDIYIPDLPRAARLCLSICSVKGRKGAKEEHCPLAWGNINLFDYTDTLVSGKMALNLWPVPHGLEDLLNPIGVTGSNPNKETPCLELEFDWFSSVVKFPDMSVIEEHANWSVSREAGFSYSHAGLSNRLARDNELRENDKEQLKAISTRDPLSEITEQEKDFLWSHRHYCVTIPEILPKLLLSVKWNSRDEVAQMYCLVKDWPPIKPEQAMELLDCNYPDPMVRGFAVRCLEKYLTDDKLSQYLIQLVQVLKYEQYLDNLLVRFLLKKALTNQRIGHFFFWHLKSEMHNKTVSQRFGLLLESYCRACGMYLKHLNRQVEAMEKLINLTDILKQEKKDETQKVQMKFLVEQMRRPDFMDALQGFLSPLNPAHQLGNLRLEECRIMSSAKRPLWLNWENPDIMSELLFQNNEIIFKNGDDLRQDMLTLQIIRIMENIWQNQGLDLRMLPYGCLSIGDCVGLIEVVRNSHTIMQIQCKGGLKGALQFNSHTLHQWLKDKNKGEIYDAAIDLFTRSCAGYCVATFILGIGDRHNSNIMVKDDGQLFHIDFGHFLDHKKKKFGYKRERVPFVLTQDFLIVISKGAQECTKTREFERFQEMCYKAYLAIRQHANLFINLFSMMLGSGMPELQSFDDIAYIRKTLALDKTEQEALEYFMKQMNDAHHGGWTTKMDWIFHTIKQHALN
T1 sequence (P27986 whole entry partner): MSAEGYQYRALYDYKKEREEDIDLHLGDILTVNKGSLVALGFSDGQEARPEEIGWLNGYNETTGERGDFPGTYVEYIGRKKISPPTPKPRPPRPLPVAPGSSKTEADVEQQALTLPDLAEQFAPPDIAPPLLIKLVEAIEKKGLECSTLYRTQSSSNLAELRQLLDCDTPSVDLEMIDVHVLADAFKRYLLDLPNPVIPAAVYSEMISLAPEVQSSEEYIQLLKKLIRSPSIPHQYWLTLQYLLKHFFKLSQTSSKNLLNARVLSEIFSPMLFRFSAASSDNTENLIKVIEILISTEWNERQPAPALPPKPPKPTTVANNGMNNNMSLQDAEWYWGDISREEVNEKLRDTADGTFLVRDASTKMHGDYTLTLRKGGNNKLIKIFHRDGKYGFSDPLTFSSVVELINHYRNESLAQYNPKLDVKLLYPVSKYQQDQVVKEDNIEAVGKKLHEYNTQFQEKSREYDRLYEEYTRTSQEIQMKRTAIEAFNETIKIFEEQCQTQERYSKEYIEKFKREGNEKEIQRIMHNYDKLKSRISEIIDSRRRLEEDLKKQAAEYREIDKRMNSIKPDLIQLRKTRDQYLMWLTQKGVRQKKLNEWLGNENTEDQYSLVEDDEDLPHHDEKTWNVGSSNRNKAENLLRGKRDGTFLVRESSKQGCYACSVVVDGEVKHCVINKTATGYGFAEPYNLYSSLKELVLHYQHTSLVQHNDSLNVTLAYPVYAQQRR
Protocol: Kinase reactions were performed with ADP-Glo kinase assay kit (Promega Corporation). The enzyme, substrate and compounds were diluted in reaction buffer (20 mM HEPES, 50 mM NaCl, 50 mM KCl, 3 mM MgCl2, 1 mM EGTA, 1 mM TCEP, pH 7.4). Final concentrations of PI3Kα and PI3Kδ used were 25 nM and 50 nM for PI3Kβ. Liposomes (5% brain PI(4,5)P2, 20% brain phosphatidylserine, 45% brain phosphatidylethanolamine, 15% brain phosphatidylcholine, 10% cholesterol, 5% sphingomyelin (Avanti Polar Lipids)) were used at a final concentration of 1 mg/ml.
For the HTS, the reaction mixture contained 0.75 μl enzyme, 15 nl compound and/or pY and 0.75 μl of liposome substrate mixed with ATP. […] (GL Biochem, Shanghai Ltd). ATP was used at a final concentration of 500 μM unless otherwise stated. The final DMSO concentration in the assay was 1%. The experiments were performed at room temperature for 3 h using 1536-well white-polystyrene plates (Corning #3729) before addition of 2 μl of ADP-Glo R1 to terminate the reaction. The plate was incubated for 40 min, followed by addition of 4 μl of ADP-Glo R2 and incubated further for 60 min in the dark. Luminescence was read using an EnVision (PerkinElmer) plate reader. All analyses were performed using Genedata Screener.
For re-screening of HTS hits and routine compound profiling, the reaction mixture contained 2 μl PI3K enzyme, 2 μl compound and/or pY and 2 μl of liposome substrate mixed with ATP. ATP was used at a final concentration of 500 μM for PI3Kα and PI3Kβ and at 200 μM for PI3Kδ, unless otherwise stated. The final DMSO concentration in the assay was 1%. The experiments were performed at room temperature for 3 h using 384 white-polystyrene plates (Corning #3824) before addition of 6 μl of ADP-Glo R1 to terminate the reaction. The plate was incubated for 45 min, followed by addition of 12 μl of ADP-Glo R2 and incubated further for 60 min in the dark. Luminescence was read using a Sense (Hidex) plate reader. […] All analyses were performed using GraphPad Prism 7.
For characterisation of the effects of 1938 on in vitro PI3K enzymology, all reactions were performed at room temperature with 384 white-polystyrene plates (Corning #3574). The final DMSO concentration in the assay was between 0.5%-1.8%. The reaction mixture contained 2 μl PI3K enzyme, 2 μl compound and/or pY and 2 μl of liposome substrate mixed with ATP. ATP was used at a final concentration of 200 μM, unless otherwise stated.

## CCN1CCN(c2ccc(Nc3cc(Nc4cccc5c4N(C(C)=O)CC5)ccn3)cc2)CC1 [Compound 1938]
PI3Kα-KO A549 cells
  plasma membrane PIP3 (biosensor): not seen
Human p110α/p85α (PI3Kα)
  activation of PI3Kα: activates
Human p110α/p85α (PI3Kα); 1938 with a saturating concentration of pY
  PI3Kα activation in combination with pY: synergistic PI3Kα activation
Human p110α/p85α (PI3Kα); SI Table 3
  Maximum activity relative to 1938: 100%
Human p110α/p85α (PI3Kα); SI Table 3, 1938 analogues, read-out: EC50
  EC50: 58 ± 28 µM
Human p110α/p85α (PI3Kα); read-out: EC50 for PI3Kα (in vitro lipid kinase activity)
  EC50: ~60 µM
